# From article PMC6934184, “Selective DNA-PKcs inhibition extends the therapeutic index of localized radiotherapy and chemotherapy” (The Journal of Clinical Investigation, 2019)
# Molecular target: T1, STK16 (PKL12) (Homo sapiens, UniProt O75716)
# T1 construct: purchased Thermo Fisher Scientific (Life Technologies) SelectScreen
# Experiment: SelectScreen LanthaScreen
# Format: binding
# Conditions: read-out: % displacement
# Outline: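 Percent values come from Thermo SelectScreen profiling of NU5455, combining activity and binding assays. CSF1R was run in Z'LYTE format at Km app ATP, and CAMK1 in Adapta format with ATP listed at 10.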
# T1 sequence (O75716 whole entry): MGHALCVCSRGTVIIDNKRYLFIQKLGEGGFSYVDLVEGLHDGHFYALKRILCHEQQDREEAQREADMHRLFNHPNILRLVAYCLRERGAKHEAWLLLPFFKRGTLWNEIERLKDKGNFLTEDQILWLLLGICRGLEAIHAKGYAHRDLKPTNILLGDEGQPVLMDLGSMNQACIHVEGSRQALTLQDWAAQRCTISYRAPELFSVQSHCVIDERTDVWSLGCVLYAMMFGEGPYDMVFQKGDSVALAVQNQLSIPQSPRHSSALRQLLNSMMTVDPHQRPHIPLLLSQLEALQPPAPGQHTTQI
smiles,measurement,value
CN(C(=O)CN1CCOCC1)c1ccc2sc3c(-c4cccc5c(=O)cc(N6CC7CCC(C6)O7)oc45)cccc3c2c1 [NU5455],inhibition at 1 µM,10.5%
